# Laboratory results taken from the supplement of paper PMC10307832.
# Tests used:
# Assay in all cases: relative viability (nuclei count vs DMSO), 5 days (fraction); higher = more cells survive
# [1] = compound: C[C@]1(c2nc3c(C(N)=O)cccc3[nH]2)CCCN1 [Veliparib] + CS(=O)(=O)N1CCN(Cc2cc3nc(-c4cccc5[nH]ncc45)nc(N4CCOCC4)c3s2)CC1 [Pictilisib] (partner 1 µM)
# How it was run: (§1)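 Five library-drug doses in √10 steps were combined with a fixed anchor-drug dose, or a single drug was given alone, by pin tool to lung cancer cell lines in 1536-well plates the day after seeding. Nuclei were stained and counted after 5 days. Relative viability is the nuclei count in treated wells over that in vehicle wells, taken as the median of duplicate plates.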
# [2] = compound: C[C@]1(c2nc3c(C(N)=O)cccc3[nH]2)CCCN1 [Veliparib] + CC(=O)Nc1cccc(-n2c(=O)n(C3CC3)c(=O)c3c(Nc4ccc(I)cc4F)n(C)c(=O)c(C)c32)c1 [Trametinib] (partner 0.02 µM)
# How it was run: as §1
# [3] = compound: C[C@]1(c2nc3c(C(N)=O)cccc3[nH]2)CCCN1 [Veliparib] + COc1cc2c(Oc3ccc(NC(=O)C4(C(=O)Nc5ccc(F)cc5)CC4)cc3F)ccnc2cc1OCCCN1CCOCC1 [Foretinib] (partner 0.25 µM)
# How it was run: as §1
# [4] = compound: COC1=CC=C(C=C1)CN2C=CC3=C2C=C(C=C3)C(=O)NO + Cc1nc(Nc2ncc(C(=O)Nc3c(C)cccc3Cl)s2)cc(N2CCN(CCO)CC2)n1 [Dasatinib] (partner 0.075 µM)
# How it was run: as §1
Cell Line,relative viability ([1]; first compound 0.02 µM),relative viability ([1]; first compound 0.06325 µM),relative viability ([1]; first compound 0.2 µM),relative viability ([1]; first compound 0.6325 µM),relative viability ([1]; first compound 2 µM),relative viability ([2]; first compound 0.02 µM),relative viability ([2]; first compound 0.06325 µM),relative viability ([2]; first compound 0.2 µM),relative viability ([2]; first compound 0.6325 µM),relative viability ([2]; first compound 2 µM),relative viability ([3]; first compound 0.02 µM),relative viability ([3]; first compound 0.06325 µM),relative viability ([3]; first compound 0.2 µM),relative viability ([3]; first compound 0.6325 µM),relative viability ([3]; first compound 2 µM),relative viability ([4]; first compound 0.08 µM),relative viability ([4]; first compound 0.253 µM),relative viability ([4]; first compound 0.8 µM),relative viability ([4]; first compound 2.53 µM),relative viability ([4]; first compound 8 µM)
COR-L23,0.722,0.645,0.697,0.536,0.774,0.47,0.609,0.501,0.539,0.613,0.958,0.987,0.956,0.962,0.866,0.388,0.463,0.556,0.524,0.427
NCI-H2009,0.734,0.777,0.704,0.786,0.813,0.289,0.291,0.316,0.302,0.33,1.35,1.21,1.17,1.2,1.28,0.281,0.284,0.326,0.276,0.197
NCI-H1355,–,0.329,0.477,0.406,0.472,0.368,0.282,0.438,0.422,0.447,–,0.879,0.965,0.932,0.982,–,0.764,0.717,0.698,0.679
NCI-H838,0.441,0.455,0.418,0.335,0.457,0.566,0.501,0.54,0.524,0.521,1.09,0.987,1.04,0.967,1.06,–,0.265,0.31,0.297,0.258
EPLC-272H,–,0.227,0.283,0.278,0.0962,–,0.303,0.297,0.268,0.319,0.743,0.609,0.677,0.659,0.878,0.36,–,0.434,0.389,0.199
NCI-H23,0.598,0.477,0.451,0.449,0.563,0.448,0.413,0.509,0.4,0.469,1.08,0.882,1.01,0.935,1.08,0.877,0.775,0.801,0.784,0.637
EMC-BAC-2,0.483,0.542,0.569,0.524,0.541,1.01,–,0.922,0.752,0.913,0.999,0.911,1.11,1.01,1.02,0.324,0.333,0.347,0.357,0.298
NCI-H2405,–,0.46,0.456,0.468,0.308,0.627,–,0.64,0.578,0.745,1.09,0.937,1.08,1.03,1.07,0.209,0.214,0.221,0.196,0.177
NCI-H661,0.397,0.317,0.354,0.359,0.393,0.525,0.646,0.584,0.543,0.64,0.999,1.02,0.866,0.892,0.998,–,0.985,0.957,0.802,0.579
NCI-H650,0.968,0.855,0.926,0.743,0.809,0.999,0.999,0.988,0.938,0.971,1.06,0.95,1.05,1,1.09,0.492,0.432,0.473,0.474,0.408
HCC-15,0.581,0.748,0.682,0.691,0.662,0.422,0.374,0.429,0.357,0.4,–,1.01,1.05,1.05,1.06,0.433,0.675,0.65,0.626,0.586
PC-14,0.624,0.513,0.616,0.673,0.662,–,0.664,0.699,0.686,0.834,0.965,0.939,0.999,0.922,0.923,0.236,0.248,0.292,0.26,0.178
NCI-H1944,0.344,0.311,0.338,0.323,0.351,0.432,0.398,0.418,0.418,0.405,0.806,0.906,0.731,0.817,0.813,–,0.215,0.235,0.237,0.204
SK-MES-1,0.373,0.295,0.402,0.336,0.347,0.531,0.54,0.525,0.53,0.627,1,0.799,0.995,0.837,1.01,0.475,0.363,0.542,0.396,0.262
H3255,0.476,0.514,0.48,0.458,0.499,0.614,0.572,0.672,0.624,0.632,0.739,0.462,0.811,0.78,0.795,0.41,0.417,0.348,0.389,0.276
